Earlier results in patent publication US9629846B1, “Nutritional supplements for women desiring to become pregnant, and pregnant and nursing women” (Argent Development Group, LLC, priority 2013, dated 2017).

Tests used:
[1] = dietary iron, heme versus non-heme
[2] = nutrient depletion

Row | absorption [1] [%] | Compound | effect on folate, magnesium and Vitamin B12 levels [2]
1 | 30 | Heme iron | –
2 | – | CN(C)C(=N)N=C(N)N [metformin] | reduce folate, magnesium, and Vitamin B12 levels
